Measured values published in patent US11351264B2, “PAR2 mimetic peptides and uses thereof” (ARIZONA BOARD OF REGENTS ON BEHALF OF THE UNIVERSITY OF …, priority 2016, dated 2022).
Primed or numbered codes have the meaning given here. *: point of attachment. 2at = 2-aminothiazol-4-yl N-terminal cap, Nc1nc(*)cs1; Hdc = hexadecyl (lipid tether group); PEG3′ = not defined here

Experiments:
Format in all cases: cell-based
[1] = molecular target: T1, PAR2 (Homo sapiens, UniProt P55085); assay: RTCA screen (xCELLigence in vitro physiological signalling assay)
T1 sequence (P55085 26-397): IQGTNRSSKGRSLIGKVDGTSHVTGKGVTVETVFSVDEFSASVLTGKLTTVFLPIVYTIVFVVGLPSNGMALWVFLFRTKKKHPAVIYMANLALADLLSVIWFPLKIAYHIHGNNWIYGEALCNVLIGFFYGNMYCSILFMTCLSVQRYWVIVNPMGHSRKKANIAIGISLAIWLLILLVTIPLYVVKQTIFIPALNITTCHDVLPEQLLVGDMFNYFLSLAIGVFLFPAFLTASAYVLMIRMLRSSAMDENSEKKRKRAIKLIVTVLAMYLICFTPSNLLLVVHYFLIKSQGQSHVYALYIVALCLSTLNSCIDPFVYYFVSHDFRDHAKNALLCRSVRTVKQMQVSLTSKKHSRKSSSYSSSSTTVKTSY
Description: FIGS. 5A-B show in vitro physiological PAR2 agonist screening using xCELLigence. […] This compound was a biased-signalling antagonist in that it had no effect on mitogen activated protein kinase (MAPK) signalling, the other major signalling pathway activated via PAR2. […] Thus, experiments screened a series of potential PAR2 ligands with a heterocycle serine substitute followed by four amino acids (XXGR) and the PEG3-Hdc lipid tether. […], C595 and […] are novel pharmacological tools that can be used to evaluate the physiological consequences of PAR2 full and biased ligand signalling.

[2] = molecular target: T1, PAR2; assay: Mitogen activated protein kinase (MAPK) signalling activated via PAR2; settings: for Effect on MAPK signalling (as antagonist): C608 at nanomolar concentrations
Description: (§1) This compound was a biased-signalling antagonist in that it had no effect on mitogen activated protein kinase (MAPK) signalling, the other major signalling pathway activated via PAR2. […] C595 is closely related to the previously described potent and specific PAR2 agonist, 2-at-LIGR (SEQ ID NO: 1)-PEG3-Hdc. Thus, experiments screened a series of potential PAR2 ligands with a heterocycle serine substitute followed by four amino acids (XXGR) and the PEG3-Hdc lipid tether. […] C562, C595 and C608 are novel pharmacological tools that can be used to evaluate the physiological consequences of PAR2 full and biased ligand signalling.

[3] = molecular target: T1, PAR2; assay: PAR2 Ca2+ signalling in cultured human bronchial epithelial cells (16HBE14o-); parameters: endogenous in cells; host or cells: 16HBE14o- human bronchial epithelial cells; settings: for Block of PAR2 Ca2+ signalling elicited via protease activation: Alternaria alternata filtrates; for Block of PAR2 Ca2+ signalling elicited via protease activation / Block of PAR2 Ca2+ signalling elicited via peptidomimetics: 16HBE14o- cells, C608 at nanomolar concentrations; for Block of PAR2 Ca2+ signalling elicited via peptidomimetics: activation by 2-at-LIGRL-NH2
Description: as §1

Substance	Compound Summary as Determined by RTCA Screen [1]	further results
2at-4thiazolamine-IGR-PEG3-Hdc [Compound 23]	No Activity at PAR2 Detected	–
2at-(dL)IGR-PEG3-Hdc [Compound 24]	No Activity at PAR2 Detected	–
2at-(dT)IGR-PEG3-Hdc [Compound 26]	No Activity at PAR2 Detected	–
2at-(dl)IGR-PEG3-Hdc [Compound 25]	No Activity at PAR2 Detected	–
2at-DIGR-PEG3-Hdc [Compound 15]	No Activity at PAR2 Detected	–
2at-HIGR-PEG3-Hdc [Compound 16]	PAR2 Agonist	–
2at-LIGR-PEG3-Hdc [Compound 12]	Full PAR2 Agonist	–
2at-LKGR-PEG3-Hdc [Compound 11]	Full PAR2 Agonist	–
2at-SHGR-PEG3-Hdc [Compound 8]	No Activity at PAR2 Detected	–
2at-SIGR-PEG3-Hdc [Compound 13]	No Activity at PAR2 Detected	–
2at-SKGR-PEG3-Hdc (2at-SKGR-{PEG3′-Hdc}) [Compound 6]	–	Antagonistic activity against peptidomimetic activation ([1]; xCELLigence in vitro physiological signalling assay): maintained antagonistic activity
2at-SKGRS-PEG3-Hdc (2at-SKGRS-{PEG3′-Hdc}) [Compound 5]	PAR2 Antagonist	Effect on MAPK signalling (as antagonist) [2]: no effect; Block of PAR2 Ca2+ signalling elicited via protease activation [3]: blocks PAR2 Ca^2+ signalling; Block of PAR2 Ca2+ signalling elicited via peptidomimetics [3]: blocks PAR2 Ca^2+ signalling
2at-SRGR-PEG3-Hdc [Compound 7]	No Activity at PAR2 Detected	–
2at-TIGR-PEG3-Hdc (2at-TIGR-{PEG3′-Hdc}) [Compound 14]	PAR2 Agonist and Antagonist	MAPK pathway profile (agonist/antagonist) [2]: Full MAPK agonist; Effect on MAPK signalling (as antagonist) [2]: without effects on MAPK signalling; RTCA signalling profile (agonist/antagonist) ([1]; listed as C608): Partial RTCA agonist and potent anatagonist (low concentrations); Ca2+ signalling profile (agonist/antagonist) [3]: Partial Ca^2+ signalling agonist and potent antagonist (low concentrations); Block of PAR2 Ca2+ signalling elicited via protease activation [3]: blocked PAR2-dependent Ca^2+ signalling; Block of PAR2 Ca2+ signalling elicited via peptidomimetics [3]: blocked PAR2-dependent Ca^2+ signalling
2at-TKGR-PEG3-Hdc [Compound 10]	No Activity at PAR2 Detected	–
2at-VIGR-PEG3-Hdc [Compound 17]	PAR2 Agonist	–
2at-homoserine-IGR-PEG3-Hdc [Compound 21]	PAR2 Agonist	–
2at-hydroxyproline-IGR-PEG3-Hdc [Compound 20]	No Activity at PAR2 Detected	–
2at-penicillamine-IGR-PEG3-Hdc [Compound 22]	No Activity at PAR2 Detected	–
